For experiment [1], the target named is T1, Pin1 (Homo sapiens, UniProt Q13526).
T1 construct: purchased Anaspec
Nature of the experiment: Evaluation of Pin1 enzyme inhibitory activity (Sensolyte Green Pin1 assay kit). It counts as biochemical. The procedure:
In order to evaluate the Pin1 enzyme inhibitory activity of the compound represented by formula 1 according to the present invention, the following experiment was performed, and the results are shown in Table 2 below.
The enzyme activity of Pin1 protein was measured using a sensolyte Green Pin1 assay kit of Anaspec. The substrate was diluted in a buffer at a ratio of 1:100 to prepare a concentration of 1 μM, and the protein was diluted in a buffer at a ratio of 1:20 to prepare a concentration of 50 μg/ml. In addition, a developing solution was prepared by diluting thereof in a buffer at a ratio of 1:100.
The compound prepared in each example was diluted with DMSO and prepared at a concentration of 100 μM, 10 μM, 1 μM or 0.1 μM using a buffer. After sequentially adding 10 μl of the compound prepared in each Example diluted to four concentrations according to the above method, 10 μl of Pin1 protein, and 30 μl of the developing solution to each well of a black 96-well plate, […]. Finally, 50 μl of the substrate was added to each well of the plate, and the enzyme reaction was carried out after shaking the plate for 10 seconds.
Then, the plate was incubated for 2 hours at room temperature in an environment without light, and the fluorescence values at 490 nm/520 nm wavelength were measured using a device of Synergy Neo […]. The results are shown in Table 2 below by dividing the grades of A to D for each concentration (μM) at which the Pin1 enzyme activity is inhibited.

Experiment [2] concerns A2780-SP cells (ovarian cancer stem cells). As to the kind of experiment: Sphere cell viability of A2780-SP cells (Cell-titer Glo). In kind it is cell-based. The procedure: In order to confirm the inhibitory effect of the compound represented by formula 1 according to the present invention on the growth of MCF7, MCF7-SP, A2780 or A2780-SP cells, the following experiment was performed, and the results are shown in Tables 4 and 5 below.
On the other hand, A2780-SP cells (ovarian cancer stem cells) were plated in an Ultra-Low Attachment round bottom 96-well plate (corning) at the density of 1,500 viable cells per well, and cultured in cancer stem cell medium. The cancer stem cell medium is composed of the neurobasal medium supplemented with 20 ng/ml of bFGF, 10 ng/ml of EGF, […] of amphotericin B, HEPES, Glutamax and B27.
On the next day of culture, the cells were treated with the compound of Examples 57, and 69 to 144, followed by culture for 8 days. The medium containing the compound was added thereto once again on the 4th day. Sphere cell viability was evaluated by Cell-titer Glo (Promega, WC, USA), and luciferase activity was detected using a Tecan plate reader (Biocompare, USA).

[3] abbreviates: Table 2, read-out: concentration at which Pin1 inhibitory activity was exhibited.
[4] abbreviates: concentration at which the Pin1 enzyme activity is inhibited, 2 hours at room temperature, fluorescence 490 nm/520 nm, read-out: Pin 1 inhibition.
Where [5] appears, read: 192 h, sphere cell viability, culture for 8 days, read-out: A2780-SP.

The record followed here is US12583818B2 (DAEGU-GYEONGBUK MEDICAL INNOVATION FOUNDATION, priority 2020, dated 2026).

Like-named read-outs stand apart in the source and are kept apart here. Some results are limits rather than exact numbers.

T1 sequence (Q13526 whole entry): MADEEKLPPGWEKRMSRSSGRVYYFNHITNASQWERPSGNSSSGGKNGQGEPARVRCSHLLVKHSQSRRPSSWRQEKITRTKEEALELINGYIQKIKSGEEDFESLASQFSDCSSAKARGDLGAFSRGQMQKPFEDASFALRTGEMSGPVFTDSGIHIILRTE

`O=S(=O)(NCCCc1c[nH]c2ccc(Cl)cc12)c1ccc(NCCCN2CCNCC2)cc1` [Example 113, N-(3-(5-chloro-1H-indole-3-yl)propyl)-4-((3-(piperazine-1-yl)propyl)amino)benzenesulfonamide]: the figures for the IC50 in experiment [1] (setting [3]), in experiment [1] (setting [4]) and in experiment [2] (setting [5]) were below 1000 nM, below 1000 nM and 1000 to 10000 nM, respectively.
`O=S(=O)(NCCCc1c[nH]c2ccc(Cl)cc12)c1ccc(NCCCN2CCCCC2)cc1` [Example 114, N-(3-(5-chloro-1H-indol-3-yl)propyl)-4-((3-(piperidin-1-yl)propyl)amino)benzenesulfonamide]: the IC50 in experiment [1] (setting [3]) is below 1000 nM; in experiment [1] (setting [4]), below 1000 nM; in experiment [2] (setting [5]), 1000 to 10000 nM.
In the case of `CN1CCC(CCCCc2ccc(S(=O)(=O)NCCCc3c[nH]c4ccc(Cl)cc34)cc2)CC1` [Example 115, N-(3-(5-chloro-1H-indol-3-yl)propyl)-4-(4-(1-methylpiperidin-4-yl)butyl)benzenesulfonamide], the IC50 in experiment [1] (setting [3]) was below 1000 nM; in experiment [1] (setting [4]) it was below 1000 nM; in experiment [2] (setting [5]), below 1000 nM; in experiment [2] (Table 5, read-out: the concentration (second list of b710, cell line not named; matches A2780-SP column)) it was below 1000 nM.
Take `O=S(=O)(NCCCc1c[nH]c2ccc(Cl)cc12)c1ccc(OCC2(CN3CCNCC3)CC2)cc1` [Example 117, N-(3-(5-chloro-1H-indol-3-yl)propyl)-4-((1-(piperazin-1-ylmethyl)cyclopropyl)methoxy)benzenesulfonamide]: the IC50 was below 1000 nM in experiment [1] (setting [3]), below 1000 nM in experiment [1] (setting [4]) and 1000 to 10000 nM in experiment [2] (setting [5]).
Regarding `CN1CCCN(c2cccc(Oc3ccc(S(=O)(=O)NCCCc4c[nH]c5ccc(Cl)cc45)cc3)c2)CC1` [Example 122, N-(3-(5-chloro-1H-indol-3-yl)propyl)-4-(3-(4-methyl-1,4-diazepan-1-yl)phenoxy)benzenesulfonamide], in experiment [1] (setting [4]), the IC50 was 1000 to 10000 nM.
Same read-out and setting: the same measure for `O=S(=O)(NCCCc1c[nH]c2ccc(Cl)cc12)c1ccc(Nc2cccc(N3CCOCC3)c2)cc1` [Example 126, N-(3-(5-chloro-1H-indol-3-yl)propyl)-4-((3-morpholinophenyl)amino)benzenesulfonamide]: 1000 to 10000 nM.
Same read-out and setting: then `O=S(=O)(NCCCc1c[nH]c2ccc(Cl)cc12)c1ccc(Oc2cccc(N3CCOCC3)c2)cc1` [Example 128, N-(3-(5-chloro-1H-indol-3-yl)propyl)-4-(3-morpholinophenoxy)benzenesulfonamide], with 1000 to 10000 nM; and `O=S(=O)(NCCCc1c[nH]c2ccc(Cl)cc12)c1ccc(Oc2cccc(N3CCCNCC3)c2)cc1` [Example 129, 4-(3-(1,4-diazepan-1-yl)phenoxy)-N-(3-(5-chloro-1H-indol-3-yl)propyl)benzenesulfonamide], with 1000 to 10000 nM.
Turning to `CN1CCN(c2cccc(Nc3ccc(S(=O)(=O)NCCCc4c[nH]c5ccc(Cl)cc45)cc3)n2)CC1` [Example 131, N-(3-(5-chloro-1H-indol-3-yl)propyl)-4-((6-(4-methylpiperazin-1-yl)pyridin-2-yl)amino)benzenesulfonamide], the IC50 in experiment [1] (setting [4]) is 1000 to 10000 nM.
`O=S(=O)(NCCCc1c[nH]c2ccc(Cl)cc12)c1ccc(Nc2cccc(N3CCNCC3)n2)cc1` [Example 132, N-(3-(5-chloro-1H-indol-3-yl)propyl)-4-((6-(piperazin-1-yl)pyridin-2-yl)amino)benzenesulfonamide]: in experiment [1] (setting [4]), the IC50 was 1000 to 10000 nM.
Turning to `O=S(=O)(NCCCc1c[nH]c2ccc(Cl)cc12)c1ccc(Oc2cccc(N3CCCC3)c2)cc1` [Example 135, N-(3-(5-chloro-1H-indol-3-yl)propyl)-4-(3-(pyrrolidin-1-yl)phenoxy)benzenesulfonamide], the IC50 in experiment [1] (setting [4]) was in the range of 1000 to 10000 nM.
Same read-out and setting: the same measure for `O=S(=O)(NCCCc1c[nH]c2ccc(Cl)cc12)c1ccc(Oc2cccc(N3CCC(O)CC3)c2)cc1` [Example 136, N-(3-(5-chloro-1H-indol-3-yl)propyl)-4-(3-(4-hydroxypiperidin-1-yl)phenoxy)benzenesulfonamide]: 1000 to 10000 nM; for `O=S(=O)(NCCCc1c[nH]c2ccc(Cl)cc12)c1ccc(Nc2cccc(N3CCC(O)CC3)c2)cc1` [Example 139, N-(3-(5-chloro-1H-indol-3-yl)propyl)-4-((3-(4-hydroxypiperidin-1-yl)phenyl)amino)benzenesulfonamide]: 1000 to 10000 nM.
`CN1CCN(c2ccc(Nc3ccc(S(=O)(=O)NCCCc4c[nH]c5ccc(Cl)cc45)cc3)cc2)CC1` [Example 142, N-(3-(5-chloro-1H-indol-3-yl)propyl)-4-((4-(4-methylpiperazin-1-yl)phenyl)amino)benzenesulfonamide]: the IC50 in experiment [1] (setting [4]) lay in the range of 1000 to 10000 nM.
For `O=C(NCCCc1c[nH]c2ccc(Cl)cc12)c1ccc(OCCCN2CCNCC2)cc1` [Example 144, N-(3-(5-chloro-1H-indol-3-yl)propyl)-4-(3-(piperazin-1-yl)propoxy)benzamide], in experiment [1] (setting [4]), the IC50 fell in the range of 1000 to 10000 nM.
Same read-out and setting: then `O=S(=O)(NCCCc1c[nH]c2ccc(-c3ccccc3)cc12)c1ccc(OCCCN2CCNCC2)cc1` [Example 155, N-(3-(5-phenyl-1H-indol-3-yl)propyl)-4-(3-(piperazin-1-yl)propoxy)benzenesulfonamide], with 1000 to 10000 nM.
With `CN1CCN(CCCOc2ccc(S(=O)(=O)NCCCc3c[nH]c4ccc(-c5ccccc5)cc34)cc2)CC1` [Example 156, 4-(3-(4-methylpiperazin-1-yl)propoxy)-N-(3-(5-phenyl-1H-indol-3-yl)propyl)benzenesulfonamide], the IC50 in experiment [1] (setting [4]) lay within 1000 to 10000 nM.
For `CN1CCN(CCCOc2ccc(S(=O)(=O)NCCCc3c[nH]c4ccc(Cl)cc34)cc2)CC1=O` [Example 162, N-(3-(5-chloro-1H-indol-3-yl)propyl)-4-(3-(4-methyl-3-oxopiperazin-1-yl)propoxy)benzenesulfonamide], the IC50 in experiment [1] (setting [4]) was in the range of 1000 to 10000 nM.
For the compound `O=C1CN(CCCOc2ccc(S(=O)(=O)NCCCc3c[nH]c4ccc(Cl)cc34)cc2)CCN1` [Example 163, N-(3-(5-chloro-1H-indol-3-yl)propyl)-4-(3-(3-oxopiperazin-1-yl)propoxy)benzenesulfonamide], the IC50 in experiment [1] (setting [4]) lay in the range of 1000 to 10000 nM.
On the same count and under the same terms, then `CN1CCN(CCCOc2ccc(S(=O)(=O)NC3CCCC(c4c[nH]c5ccc(Cl)cc45)C3)cc2)CC1` (centres unmarked) [Example 179, N-(3-(5-chloro-1H-indol-3-yl)cyclohexyl)-4-(3-(4-methylpiperazin-1-yl)propoxy)benzenesulfonamide], with 1000 to 10000 nM; and `O=S(=O)(NC1CCCC(c2c[nH]c3ccc(Cl)cc23)C1)c1ccc(OCCCN2CCNCC2)cc1` (centres unmarked) [Example 180, N-(3-(5-chloro-1H-indol-3-yl)cyclohexyl)-4-(3-(piperazin-1-yl)propoxy)benzenesulfonamide], with 1000 to 10000 nM; and `CN1CCN(CCCOc2ccc(S(=O)(=O)Nc3ccccc3C(C)(C)c3c[nH]c4ccc(Cl)cc34)cc2)CC1` [Example 181, N-(2-(2-(5-chloro-1H-indole-3-yl)propane-2-yl)phenyl)-4-(3-(4-methylpiperazine-1-yl)propoxy)benzenesulfonamide], with 1000 to 10000 nM.
Still for that read-out and setting: then `CC(C)(c1ccccc1NS(=O)(=O)c1ccc(OCCCN2CCNCC2)cc1)c1c[nH]c2ccc(Cl)cc12` [Example 182, N-(2-(2-(5-chloro-1H-indol-3-yl)propan-2-yl)phenyl)-4-(3-(piperazin-1-yl)propoxy)benzenesulfonamide], with 1000 to 10000 nM.
